Measured values taken from patent US20220081412A1, “QUINOLINYL-PYRAZINE-CARBOXAMIDE COMPOUNDS AND USES THEREOF” (The Regents of the University of Michigan, priority 2018, published 2022).

System: MIA PaCa-2 cells
Test: Bru-seq analysis for nascent RNA synthesis (log2FC of genes, GSEA gene sets)
Assay type: cell-based, human
[1] = downregulated gene sets, TFBT, 4 h, MIA PaCa-2 cells
[2] = gene set ADDYA_ERYTHROID_DIFFERENTIATION_BY_HEMIN, 4 h
[3] = gene set AMIT_SERUM_RESPONSE_60_MCF10A, 4 h
[4] = gene set BURTON_ADIPOGENESIS_10, 4 h
[5] = gene set CHANG_CORE_SERUM_RESPONSE_DN, 4 h
[6] = gene set CUI_GLUCOSE_DEPRIVATION, 4 h
[7] = gene set DACOSTA_UV_RESPONSE_VIA_ERCC3_UP, 4 h
[8] = gene set DAZARD_RESPONSE_TO_UV_NHEK_UP, 4 h
[9] = gene set DIRMEIER_LMP1_RESPONSE_EARLY, 4 h
[10] = gene set ENK_UV_RESPONSE_KERATINOCYTE_UP, 4 h
[11] = gene set GEORGANTAS_HSC_MARKERS, 4 h
[12] = gene set GO_ALCOHOL_BIOSYNTHETIC_PROCESS, 4 h
[13] = gene set GO_ALCOHOL_METABOLIC_PROCESS, 4 h
[14] = gene set GO_CELLULAR_LIPID_CATABOLIC_PROCESS, 4 h
[15] = gene set GO_CELLULAR_RESPONSE_TO_TOPOLOGICALLY_INCORRECT_PROTEIN, 4 h
[16] = gene set GO_CHROMATIN_ASSEMBLY_OR_DISASSEMBLY, 4 h
[17] = gene set GO_DNA_PACKAGING_COMPLEX, 4 h
[18] = gene set GO_ER_NUCLEUS_SIGNALING_PATHWAY, 4 h
[19] = gene set GO_FATTY_ACID_BIOSYNTHETIC_PROCESS, 4 h
[20] = gene set GO_INTRINSIC_COMPONENT_OF_ENDOPLASMIC_RETICULUM_MEMBRANE, 4 h
[21] = gene set GO_IRE1_MEDIATED_UNFOLDED_PROTEIN_RESPONSE, 4 h
[22] = gene set GO_ISOPRENOID_BIOSYNTHETIC_PROCESS, 4 h
[23] = gene set GO_LYSOSOMAL_LUMEN, 4 h
[24] = gene set GO_NUCLEAR_NUCLEOSOME, 4 h
[25] = gene set GO_ORGANIC_HYDROXY_COMPOUND_BIOSYNTHETIC_PROCESS, 4 h
[26] = gene set GO_PROTEIN_DNA_COMPLEX, 4 h
[27] = gene set GO_PROTEIN_DNA_COMPLEX_SUBUNIT_ORGANIZATION, 4 h
[28] = gene set GO_REGULATION_OF_ENDOPLASMIC_RETICULUM_STRESS_INDUCED_INTRINSIC_APOPTOTIC_SIGNALING_PATHWAY, 4 h
[29] = gene set GO_RESPONSE_TO_ENDOPLASMIC_RETICULUM_STRESS, 4 h
[30] = gene set GO_RESPONSE_TO_TOPOLOGICALLY_INCORRECT_PROTEIN, 4 h
[31] = gene set GO_SMALL_MOLECULE_BIOSYNTHETIC_PROCESS, 4 h
[32] = gene set GO_STEROID_BIOSYNTHETIC_PROCESS, 4 h
[33] = gene set GO_STEROID_METABOLIC_PROCESS, 4 h
[34] = gene set GO_STEROL_BIOSYNTHETIC_PROCESS, 4 h
[35] = gene set GO_STEROL_METABOLIC_PROCESS, 4 h
[36] = gene set HALLMARK_ADIPOGENESIS, 4 h
[37] = gene set HALLMARK_ANDROGEN_RESPONSE, 4 h
[38] = gene set HALLMARK_APOPTOSIS, 4 h
[39] = gene set HALLMARK_CHOLESTEROL_HOMEOSTASIS, 4 h
[40] = gene set HALLMARK_COAGULATION, 4 h
[41] = gene set HALLMARK_DNA_REPAIR, 4 h
[42] = gene set HALLMARK_EPITHELIAL_MESENCHYMAL_TRANSITION, 4 h
[43] = gene set HALLMARK_ESTROGEN_RESPONSE_EARLY, 4 h
[44] = gene set HALLMARK_ESTROGEN_RESPONSE_LATE, 4 h
[45] = gene set HALLMARK_FATTY_ACID_METABOLISM, 4 h
[46] = gene set HALLMARK_GLYCOLYSIS, 4 h
[47] = gene set HALLMARK_HEME_METABOLISM, 4 h

CCN(CC)CCCC(C)Nc1cnc(C(=O)Nc2cc(C)cc3cccnc23)cn1 (stereo not drawn) [J4, 5-((5-(diethylamino)pentan-2-yl)amino)-N-(6-methylquinolin-8-yl)pyrazine-2-carboxamide]
ES PBX1_02 [1]: −0.282 | ES PIT1_Q6 [1]: −0.263 | ES POU1F1_Q6 [1]: −0.236 | ES TAANNYSGCG_UNKNOWN [1]: −0.253 | ES TAAWWATAG_RSRFC4_Q2 [1]: −0.271 | ES TAAYNRNNTCC_UNKNOWN [1]: −0.314 | ES YKACATTT_UNKNOWN [1]: −0.221 | NES BRN2_01 [1]: −1.086 | NES CDPCR1_01 [1]: −1.030 | NES CDP_01 [1]: −1.041 | NES EN1_01 [1]: −1.062 | NES FOXJ2_02 [1]: −1.154 | NES GGCKCATGS_UNKNOWN [1]: −1.621 | NES HMEF2_Q6 [1]: −1.037 | NES HNF1_Q6 [1]: −1.145 | NES HOX13_01 [1]: −1.144 | NES IK1_01 [1]: −1.074 | NES IRF2_01 [1]: −1.322 | NES MEF2_02 [1]: −0.965 | NES MEF2_Q6_01 [1]: −0.985 | NES MEIS1BHOXA9_01 [1]: −1.269 | NES NKX3A_01 [1]: −1.213 | NES PAX8_01 [1]: −1.304 | NES PBX1_02 [1]: −1.130 | NES PIT1_Q6 [1]: −1.156 | NES POU1F1_Q6 [1]: −1.032 | NES TAANNYSGCG_UNKNOWN [1]: −1.012 | NES TAAWWATAG_RSRFC4_Q2 [1]: −1.112 | NES TAAYNRNNTCC_UNKNOWN [1]: −1.303 | NES YKACATTT_UNKNOWN [1]: −1.039 | ES [2]: 0.708 | NES [2]: 2.307 | ES [3]: 0.728 | NES [3]: 2.228 | ES [4]: 0.790 | NES [4]: 2.254 | ES [5]: 0.624 | NES [5]: 2.370 | ES [6]: 0.760 | NES [6]: 2.383 | ES [7]: 0.569 | NES [7]: 2.301 | ES [8]: 0.602 | NES [8]: 2.291 | ES [9]: 0.764 | NES [9]: 2.410 | ES [10]: 0.590 | NES [10]: 2.464 | ES [11]: 0.736 | NES [11]: 2.234 | ES [12]: 0.728 | NES [12]: 2.531 | ES [13]: 0.543 | NES [13]: 2.127 | ES [14]: 0.577 | NES [14]: 2.080 | ES [15]: 0.635 | NES [15]: 2.333 | ES [16]: 0.576 | NES [16]: 2.165 | ES (gene set GO_DNA_PACKAGING, 4 h): 0.570 | NES (gene set GO_DNA_PACKAGING, 4 h): 2.161 | ES [17]: 0.755 | NES [17]: 2.422 | ES [18]: 0.739 | NES [18]: 2.156 | ES [19]: 0.626 | NES [19]: 2.043 | ES [20]: 0.577 | NES [20]: 2.075 | ES [21]: 0.690 | NES [21]: 2.300 | ES [22]: 0.796 | NES [22]: 2.093 | ES [23]: 0.637 | NES [23]: 2.060 | ES [24]: 0.832 | NES [24]: 2.218 | ES [25]: 0.651 | NES [25]: 2.372 | ES [26]: 0.619 | NES [26]: 2.288 | ES [27]: 0.521 | NES [27]: 2.041 | ES [28]: 0.774 | NES [28]: 2.132 | ES [29]: 0.526 | NES [29]: 2.067 | ES [30]: 0.616 | NES [30]: 2.337 | ES [31]: 0.555 | NES [31]: 2.227 | ES [32]: 0.784 | NES [32]: 2.632 | ES [33]: 0.667 | NES [33]: 2.432 | ES [34]: 0.878 | NES [34]: 2.656 | ES [35]: 0.748 | NES [35]: 2.604 | ES [36]: 0.465 | NES [36]: 1.784 | ES [37]: 0.529 | NES [37]: 1.875 | ES [38]: 0.485 | NES [38]: 1.804 | ES [39]: 0.759 | NES [39]: 2.533 | ES [40]: 0.516 | NES [40]: 1.624 | ES [41]: 0.377 | NES [41]: 1.422 | ES [42]: 0.407 | NES [42]: 1.436 | ES [43]: 0.458 | NES [43]: 1.719 | ES [44]: 0.443 | NES [44]: 1.631 | ES [45]: 0.551 | NES [45]: 2.054 | ES [46]: 0.417 | NES [46]: 1.603 | ES [47]: 0.389 | NES [47]: 1.480 | ES (gene set HALLMARK_HYPOXIA, 4 h): 0.591 | NES (gene set HALLMARK_HYPOXIA, 4 h): 2.235
